Laboratory results taken from ChEMBL document CHEMBL4387728, “Synthetic glycopeptides reveal specific binding pattern and conformational change at O-mannosylated position of α-dystroglycan by POMGnT1 catalyzed GlcNAc modification” (Bioorg Med Chem, 2019).
Calls of active or inactive are those of the source. The calls are words filed in the database; no cut-off is given here. Square brackets hold non-standard residues; d marks the D form. Peptide text beside a SMILES is read from it. * marks the point of attachment. X1 = CC(=O)N[C@H]1[C@H](O[C@H]2[C@@H](O)[C@H](O)[C@@H](CO)O[C@@H]2*)O[C@H](CO)[C@@H](O[C@@H]2O[C@H](CO)[C@H](O)[C@H](O[C@]3(C(=O)O)C[C@H](O)[C@@H](NC(C)=O)[C@H]([C@H](O)[C@H](O)CO)O3)[C@H]2O)[C@@H]1O; X2 = CC(=O)N[C@H]1[C@H](O[C@H]2[C@@H](O)[C@H](O)[C@@H](CO)O[C@@H]2*)O[C@H](CO)[C@@H](O[C@@H]2O[C@H](CO)[C@H](O)[C@H](O)[C@H]2O)[C@@H]1O; GlcNAc(β1-2)αMan = CC(=O)N[C@H]1[C@H](O[C@H]2[C@@H](O)[C@H](O)[C@@H](CO)O[C@@H]2*)O[C@H](CO)[C@@H](O)[C@@H]1O; Orn(CH(NH2)2) = NC(N)NCCC[C@H](N)C(=O)O; Hexanoyl(5-oxo) = CC(=O)CCCC(=O)*

How the values were obtained:
[1] = biological target: Lactotransferrin (Homo sapiens) (UniProt P02788); test: Binding affinity to biotin-labeled lactoferrin (unknown origin) at 10 ug/ml in pH 7.4 Tris buffer by fluorescence microarray method
Homo sapiens [2] = species on record: Homo sapiens; test: Binding affinity to biotin-labeled human recombinant laminin-2 at 10 ug/ml in 5.6 MES buffer by fluorescence microarray method
Arachis hypogaea = test: Binding affinity to biotin-labeled Arachis hypogaea agglutinin in pH 7.4 Tris buffer by fluorescence microarray method
[3] = system: Sambucus racemosa subsp. sieboldiana; test: Binding affinity to biotin-labeled Sambucus sieboldiana agglutinin in pH 7.4 Tris buffer by fluorescence microarray method
Triticum aestivum = test: Binding affinity to biotin-labeled Wheat germ agglutinin in pH 7.4 Tris buffer by fluorescence microarray method
Erythrina crista-galli = test: Binding affinity to biotin-labeled Erythrina crista-galli agglutinin in pH 7.4 Tris buffer by fluorescence microarray method
[4] = biological target: Laminin subunit alpha-1 (Homo sapiens) (UniProt P25391); test: Binding affinity to biotin-labeled human recombinant laminin-1 at 10 ug/ml in pH 7.4 Tris buffer by fluorescence microarray method
Canavalia ensiformis = test: Binding affinity to biotin-labeled Canavalia ensiformis agglutinin in pH 7.4 Tris buffer by fluorescence microarray method
Homo sapiens [5] = species on record: Homo sapiens; test: Binding affinity to biotin-labeled human recombinant laminin-2 at 10 ug/ml in pH 7.4 Tris buffer by fluorescence microarray method
[6] = biological target: Laminin subunit alpha-1 (Homo sapiens) (UniProt P25391); test: Binding affinity to biotin-labeled human recombinant laminin-1 at 10 ug/ml in pH 5.6 MES buffer by fluorescence microarray method
[7] = Binding affinity to biotin-labeled Agaricus bisporus agglutinin in pH 7.4 Tris buffer by fluorescence microarray method
Datura stramonium = test: Binding affinity to biotin-labeled Datura stramonium agglutinin in pH 7.4 Tris buffer by fluorescence microarray method
[8] = biological target: Lactotransferrin (Homo sapiens) (UniProt P02788); test: Binding affinity to biotin-labeled lactoferrin (unknown origin) at 10 ug/ml in pH 5.6 MES buffer by fluorescence microarray method
Maackia amurensis = test: Binding affinity to biotin-labeled Maackia amurensis agglutinin in pH 7.4 Tris buffer by fluorescence microarray method

Chain of Laminin subunit alpha-1 (Homo sapiens) (P25391 whole entry): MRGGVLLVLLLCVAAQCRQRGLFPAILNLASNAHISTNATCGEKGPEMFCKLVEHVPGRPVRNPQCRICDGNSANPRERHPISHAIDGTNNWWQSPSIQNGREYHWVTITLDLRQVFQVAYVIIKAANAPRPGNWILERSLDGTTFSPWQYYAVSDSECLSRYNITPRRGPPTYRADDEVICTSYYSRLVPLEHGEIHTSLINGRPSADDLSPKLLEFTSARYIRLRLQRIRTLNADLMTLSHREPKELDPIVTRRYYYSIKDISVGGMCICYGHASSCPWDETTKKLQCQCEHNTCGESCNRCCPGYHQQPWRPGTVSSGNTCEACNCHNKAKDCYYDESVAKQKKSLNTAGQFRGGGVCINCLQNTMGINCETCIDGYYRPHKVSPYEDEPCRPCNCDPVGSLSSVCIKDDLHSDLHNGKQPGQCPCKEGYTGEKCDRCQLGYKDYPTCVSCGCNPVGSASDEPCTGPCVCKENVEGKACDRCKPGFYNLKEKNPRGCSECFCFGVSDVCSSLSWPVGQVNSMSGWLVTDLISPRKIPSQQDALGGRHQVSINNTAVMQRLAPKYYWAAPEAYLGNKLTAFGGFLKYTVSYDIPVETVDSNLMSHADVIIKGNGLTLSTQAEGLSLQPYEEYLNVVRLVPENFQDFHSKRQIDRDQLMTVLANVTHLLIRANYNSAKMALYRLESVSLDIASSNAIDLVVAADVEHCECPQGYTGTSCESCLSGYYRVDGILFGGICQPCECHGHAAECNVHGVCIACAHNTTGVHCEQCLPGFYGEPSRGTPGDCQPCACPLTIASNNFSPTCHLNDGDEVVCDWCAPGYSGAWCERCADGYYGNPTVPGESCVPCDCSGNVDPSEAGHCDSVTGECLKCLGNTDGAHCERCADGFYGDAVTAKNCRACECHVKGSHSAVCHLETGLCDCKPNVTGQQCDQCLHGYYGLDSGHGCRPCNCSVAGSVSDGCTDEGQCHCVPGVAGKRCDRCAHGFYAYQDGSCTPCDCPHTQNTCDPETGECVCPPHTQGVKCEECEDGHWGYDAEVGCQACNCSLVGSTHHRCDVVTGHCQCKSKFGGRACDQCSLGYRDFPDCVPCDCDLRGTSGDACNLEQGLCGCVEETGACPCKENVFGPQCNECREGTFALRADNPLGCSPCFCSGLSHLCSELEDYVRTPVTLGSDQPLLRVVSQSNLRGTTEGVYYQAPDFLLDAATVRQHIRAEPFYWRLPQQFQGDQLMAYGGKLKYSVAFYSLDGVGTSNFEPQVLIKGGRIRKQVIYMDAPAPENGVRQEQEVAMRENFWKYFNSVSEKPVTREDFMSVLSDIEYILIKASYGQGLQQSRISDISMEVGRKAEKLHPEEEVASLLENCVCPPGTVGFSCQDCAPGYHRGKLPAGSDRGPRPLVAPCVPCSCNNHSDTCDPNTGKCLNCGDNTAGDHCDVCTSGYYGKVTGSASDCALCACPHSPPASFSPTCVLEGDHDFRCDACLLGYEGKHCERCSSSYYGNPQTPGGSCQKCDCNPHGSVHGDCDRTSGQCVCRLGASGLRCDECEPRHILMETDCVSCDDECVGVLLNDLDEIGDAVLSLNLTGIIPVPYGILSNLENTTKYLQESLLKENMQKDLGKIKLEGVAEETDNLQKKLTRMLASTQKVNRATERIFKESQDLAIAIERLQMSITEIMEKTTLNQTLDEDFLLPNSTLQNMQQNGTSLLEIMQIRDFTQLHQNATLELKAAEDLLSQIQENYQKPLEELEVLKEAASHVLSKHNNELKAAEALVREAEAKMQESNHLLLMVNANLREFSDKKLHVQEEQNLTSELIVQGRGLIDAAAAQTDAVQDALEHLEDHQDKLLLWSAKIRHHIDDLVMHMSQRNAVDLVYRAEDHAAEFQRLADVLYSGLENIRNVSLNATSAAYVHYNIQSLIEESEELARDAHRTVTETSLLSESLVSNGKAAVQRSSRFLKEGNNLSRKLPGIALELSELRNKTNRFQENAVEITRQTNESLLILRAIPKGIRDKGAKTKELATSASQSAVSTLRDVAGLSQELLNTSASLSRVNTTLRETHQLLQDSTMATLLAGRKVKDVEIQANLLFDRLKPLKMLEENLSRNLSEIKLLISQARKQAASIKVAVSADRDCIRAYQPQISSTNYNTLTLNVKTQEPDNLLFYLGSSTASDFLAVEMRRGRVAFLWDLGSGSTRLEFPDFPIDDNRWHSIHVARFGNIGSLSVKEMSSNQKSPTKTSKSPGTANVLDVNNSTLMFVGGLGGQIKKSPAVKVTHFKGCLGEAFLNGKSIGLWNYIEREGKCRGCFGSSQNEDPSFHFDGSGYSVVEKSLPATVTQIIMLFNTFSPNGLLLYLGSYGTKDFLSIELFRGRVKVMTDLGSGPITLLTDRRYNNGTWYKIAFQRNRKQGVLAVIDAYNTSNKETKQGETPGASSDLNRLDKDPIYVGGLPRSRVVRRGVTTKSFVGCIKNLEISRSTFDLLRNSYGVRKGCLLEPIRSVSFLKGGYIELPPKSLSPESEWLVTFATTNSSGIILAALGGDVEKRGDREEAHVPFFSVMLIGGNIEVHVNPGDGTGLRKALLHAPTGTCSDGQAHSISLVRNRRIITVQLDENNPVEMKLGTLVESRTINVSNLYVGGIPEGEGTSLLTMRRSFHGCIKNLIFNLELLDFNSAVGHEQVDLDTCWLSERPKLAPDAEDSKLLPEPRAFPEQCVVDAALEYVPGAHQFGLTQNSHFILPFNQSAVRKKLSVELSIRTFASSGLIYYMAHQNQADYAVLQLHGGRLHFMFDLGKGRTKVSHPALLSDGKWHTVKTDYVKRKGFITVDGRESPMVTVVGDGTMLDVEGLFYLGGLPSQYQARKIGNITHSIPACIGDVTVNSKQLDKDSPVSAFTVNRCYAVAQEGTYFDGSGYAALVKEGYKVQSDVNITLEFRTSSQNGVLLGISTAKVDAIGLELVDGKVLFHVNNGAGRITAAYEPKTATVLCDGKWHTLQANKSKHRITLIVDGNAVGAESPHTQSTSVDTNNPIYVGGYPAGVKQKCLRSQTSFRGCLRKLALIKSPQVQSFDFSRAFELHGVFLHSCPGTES
Chain of Lactotransferrin (Homo sapiens) (P02788 whole entry): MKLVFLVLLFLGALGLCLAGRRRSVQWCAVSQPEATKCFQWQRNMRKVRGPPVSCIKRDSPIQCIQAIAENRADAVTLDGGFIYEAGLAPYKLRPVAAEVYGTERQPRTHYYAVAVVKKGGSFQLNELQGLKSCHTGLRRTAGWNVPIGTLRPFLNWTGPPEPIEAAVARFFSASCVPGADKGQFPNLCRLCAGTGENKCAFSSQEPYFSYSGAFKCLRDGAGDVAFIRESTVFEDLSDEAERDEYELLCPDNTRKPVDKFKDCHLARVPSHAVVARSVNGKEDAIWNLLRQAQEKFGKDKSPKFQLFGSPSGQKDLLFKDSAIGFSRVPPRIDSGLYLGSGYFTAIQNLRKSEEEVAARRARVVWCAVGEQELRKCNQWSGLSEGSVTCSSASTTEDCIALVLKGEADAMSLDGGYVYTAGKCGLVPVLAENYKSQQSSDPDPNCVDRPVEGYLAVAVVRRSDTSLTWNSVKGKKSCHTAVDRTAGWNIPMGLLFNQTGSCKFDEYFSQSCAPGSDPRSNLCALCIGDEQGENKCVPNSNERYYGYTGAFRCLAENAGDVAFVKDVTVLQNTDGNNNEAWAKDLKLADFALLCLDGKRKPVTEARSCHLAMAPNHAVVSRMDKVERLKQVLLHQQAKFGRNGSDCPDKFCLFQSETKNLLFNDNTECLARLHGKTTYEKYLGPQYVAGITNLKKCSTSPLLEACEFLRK

Activity [1] | Activity (Homo sapiens [2]) | Activity (Arachis hypogaea) | Activity [3] | Activity (Triticum aestivum) | Activity (Erythrina crista-galli) | Activity [4] | Activity (Canavalia ensiformis) | Activity (Homo sapiens [5]) | Activity [6] | Activity [7] | Activity (Datura stramonium) | Activity [8] | Activity (Maackia amurensis) | Structure (SMILES)
inactive | Active | Active | Active | Active | Active | Active | Active | inactive | Active | Active | inactive | Active | inactive | CC[C@H](C)[C@H](NC(=O)[C@H](C)NC(=O)CNC(=O)[C@H](CCCNC(=N)N)NC(=O)[C@@H](NC(=O)CCCC(C)=O)[C@@H](C)O)C(=O)N[C@H](C(=O)N[C@@H](CCC(N)=O)C(=O)N[C@H](C(=O)N1CCC[C@H]1C(=O)N[C@H](C(=O)N[C@@H](CC(C)C)C(=O)NCC(=O)N1CCC[C@H]1C(=O)N[C@H](C(=O)N[C@@H](CCC(N)=O)C(=O)N1CCC[C@H]1C(=O)N[C@H](C(=O)N[C@@H](CCCNC(=N)N)C(=O)N[C@H](C(N)=O)C(C)C)[C@@H](C)O[C@H]1O[C@H](CO)[C@@H](O)[C@H](O)[C@@H]1O[C@@H]1O[C@H](CO)[C@@H](O)[C@H](O)[C@H]1NC(C)=O)[C@@H](C)CC)[C@@H](C)O)[C@@H](C)O)[C@@H](C)CC ({Hexanoyl(5-oxo)}-TRGAIIQTPTLGPIQPT(GlcNAc(β1-2)αMan)RV-NH2)
inactive | Active | Active | Active | Active | Active | Active | Active | inactive | Active | Active | inactive | Active | inactive | CC[C@H](C)[C@H](NC(=O)[C@H](C)NC(=O)CNC(=O)[C@H](CCCNC(=N)N)NC(=O)[C@@H](NC(=O)CCCC(C)=O)[C@@H](C)O)C(=O)N[C@H](C(=O)N[C@@H](CCC(N)=O)C(=O)N[C@H](C(=O)N1CCC[C@H]1C(=O)N[C@H](C(=O)N[C@@H](CC(C)C)C(=O)NCC(=O)N1CCC[C@H]1C(=O)N[C@H](C(=O)N[C@@H](CCC(N)=O)C(=O)N1CCC[C@H]1C(=O)N[C@H](C(=O)N[C@@H](CCCNC(=N)N)C(=O)N[C@H](C(N)=O)C(C)C)[C@@H](C)O[C@H]1O[C@H](CO)[C@@H](O)[C@H](O)[C@@H]1O[C@@H]1O[C@H](CO)[C@@H](O[C@@H]2O[C@H](CO)[C@H](O)[C@H](O[C@]3(C(=O)O)C[C@H](O)[C@@H](NC(C)=O)[C@H]([C@H](O)[C@H](O)CO)O3)[C@H]2O)[C@H](O)[C@H]1NC(C)=O)[C@@H](C)CC)[C@@H](C)O)[C@@H](C)O)[C@@H](C)CC ({Hexanoyl(5-oxo)}-TRGAIIQTPTLGPIQPT(X1)RV-NH2)
inactive | Active | Active | Active | Active | Active | Active | Active | inactive | Active | Active | inactive | Active | inactive | CC[C@H](C)[C@H](NC(=O)[C@H](C)NC(=O)CNC(=O)[C@H](CCCNC(=N)N)NC(=O)[C@@H](NC(=O)CCCC(C)=O)[C@@H](C)O)C(=O)N[C@H](C(=O)N[C@@H](CCC(N)=O)C(=O)N[C@H](C(=O)N1CCC[C@H]1C(=O)N[C@H](C(=O)N[C@@H](CC(C)C)C(=O)NCC(=O)N1CCC[C@H]1C(=O)N[C@H](C(=O)N[C@@H](CCC(N)=O)C(=O)N1CCC[C@H]1C(=O)N[C@H](C(=O)N[C@@H](CCCNC(N)N)C(=O)N[C@H](C(N)=O)C(C)C)[C@@H](C)O[C@H]1O[C@H](CO)[C@@H](O)[C@H](O)[C@@H]1O[C@@H]1O[C@H](CO)[C@@H](O[C@@H]2O[C@H](CO)[C@H](O)[C@H](O)[C@H]2O)[C@H](O)[C@H]1NC(C)=O)[C@@H](C)CC)[C@@H](C)O)[C@@H](C)O)[C@@H](C)CC ({Hexanoyl(5-oxo)}-TRGAIIQTPTLGPIQPT(X2)[Orn(CH(NH2)2)]V-NH2)
inactive | Active | Active | Active | Active | Active | Active | Active | inactive | Active | Active | inactive | Active | inactive | CC[C@H](C)[C@H](NC(=O)[C@H](C)NC(=O)CNC(=O)[C@H](CCCNC(=N)N)NC(=O)[C@@H](NC(=O)CCCC(C)=O)[C@@H](C)O)C(=O)N[C@H](C(=O)N[C@@H](CCC(N)=O)C(=O)N[C@H](C(=O)N1CCC[C@H]1C(=O)N[C@H](C(=O)N[C@@H](CC(C)C)C(=O)NCC(=O)N1CCC[C@H]1C(=O)N[C@H](C(=O)N[C@@H](CCC(N)=O)C(=O)N1CCC[C@H]1C(=O)N[C@H](C(=O)N[C@@H](CCCNC(=N)N)C(=O)N[C@H](C(N)=O)C(C)C)[C@@H](C)O)[C@@H](C)CC)[C@@H](C)O)[C@@H](C)O)[C@@H](C)CC ({Hexanoyl(5-oxo)}-TRGAIIQTPTLGPIQPTRV-NH2)
